Test [1] relates to collagen type XIV gene (COL14A1). The experiment in a line: COL14A1 mRNA level by qRT-PCR in human dermal fibroblasts. It is filed as cell-based. To be noted: peptide at 1.0 μg/ml; for level of COL14A1 mRNA (control = 100%): vs EEF1A1 housekeeping gene, mean +/− SEM. Here is the method: The peptide Acetyl-Val-Leu-Leu-Lys (SEQ ID NO:1) was incubated on human dermal fibroblasts cultured in vitro and the expression of the collagen type XIV gene (COL14A1) was measured using a quantitative reverse-transcription and polymerase chain reaction (qRT-PCR) method.
(§1) The human dermal fibroblasts were cultured within growth medium enriched with FCS at 10% and incubated for 1 day at 37° C. Then the growth medium was exchanged for a standard medium without FCS but with or without the Acetyl-Val-Leu-Leu-Lys (SEQ ID NO:1) peptide at 1.0 μg/ml. Cells were then incubated for 24 hours, 48 hours or 72 hours at 37° C. before extraction of total RNA. The level of COL14A1 mRNAs in the different conditions was evaluated comparatively to the level of EEF1A1 mRNA as housekeeping gene (qRT-PCR method) for each condition.
The results were calculated through the level of COL14A1 mRNA measured in the control condition (without peptide treatment) for the different incubation times as 100% and presented as a mean+/−SEM from 3 or 5 assays in duplicate.

A further test deals with tropoelastin gene (ELN). The experiment in a line: ELN mRNA level by qRT-PCR in human dermal fibroblasts. It is filed as cell-based. The note with it: peptide at 1.0 μg/ml; for level of ELN mRNA (control = 100%): vs EEF1A1 housekeeping gene, mean +/− SEM. Here is the method: The peptide Acetyl-Val-Leu-Leu-Lys (SEQ ID NO:1) was incubated on human dermal fibroblasts cultured in vitro and the expression of the tropoelastin gene (ELN) was measured using a qRT-PCR method.
as §1, with “were” for “were then”, “ELN” for “COL14A1”, “EEF1A 1” for “EEF1A1”, “condition. The results were calculated through the level of ELN mRNA measured in the control condition (without peptide treatment) as 100% and presented as a mean+/−SEM from 3 assays in duplicate.” for “condition.”

The test system of a further test is collagen type I. The experiment in a line: Collagen type I immuno-staining (ICC) in cultured human dermal fibroblasts. It is filed as cell-based. The note with it: peptide at 5.1 μg/ml; for % of staining occupation (collagen type I immuno-staining): human dermal fibroblasts, 72 hours incubation, sodium ascorbyl at 20 μg/ml, control 10.68 +/− 1, mean +/− SEM, 6 measures. Here is the method:
The peptide Acetyl-Val-Leu-Leu-Lys (SEQ ID NO:1)was incubated on human dermal fibroblasts cultured in vitro and the expression of the collagen type I was measured using an immunocytochemistry (ICC) method.
The human dermal fibroblasts were cultured within growth medium enriched with Foetal Calf Serum (FCS) at 10% and incubated for 2 days at 37° C. Then the growth medium was exchanged for a standard medium containing sodium ascorbyl at 5 μg/ml with FCS at 1% and with or without the Acetyl-Val-Leu-Leu-Lys (SEQ ID NO:1)peptide at 5.1 μg/ml. A positive control condition with sodium ascorbyl at 20 μg/ml was performed. Cells were incubated for 72 hours at 37° C. with the peptide. Cultured human dermal fibroblasts were fixed by acetone for 10 minutes at −20° C. and incubated for 1 hour at room temperature with a primary antibody against collagen type I [Abcam] diluted at 1/250. Fluorescein isothiocyanate (FITC) labelled secondary antibody [CliniSciences, France] was used for revelation. The obtained immuno-staining was observed using a confocal laser scanning microscope [TCS SPE, Leica, France] and quantified by an image analyzer [Quantimet Q5001W, Leica, France]. The staining occupation was evaluated. The results were presented as a mean +/−SEM (Standard Error of Mean) from 6 measures.

Test [2] deals with glutaredoxin-2 gene (GLRX2). The test can be described thus: GLRX2 mRNA level by qRT-PCR in human dermal fibroblasts. The class given is cell-based. To be noted: peptide at 1.0 μg/ml, 6 hours. Here is the method:
The peptide Acetyl-Val-Leu-Leu-Lys (SEQ ID NO:1) was incubated on human dermal fibroblasts cultured in vitro and the expression of the glutaredoxin-2 gene (GLRX2), involved in cellular anti-oxidative defenses) was measured using a qRT-PCR method.
The human dermal fibroblasts were cultured within growth medium enriched with FCS at 10% and incubated for 1 day at 37° C. Then the growth medium was exchanged for a standard medium without FCS with or without the Acetyl-Val-Leu-Leu-Lys (SEQ ID NO:1) peptide at 1.0 μg/ml. Cells were incubated for 6 hours at 37° C. before extraction of total RNA. The level of GLRX2 mRNAs was evaluated comparatively to the level of HPRT1 (hypoxanthine phosphoribosyltransferase 1) mRNA as housekeeping gene (qRT-PCR method) for each condition.
The results were calculated through the level of GLRX2 mRNA measured in the control condition (without peptide treatment) as 100% and presented as a mean +/−SEM from 3 assays in duplicated.

The next test deals with injured rabbit cornea. The note with it: Hara et al., Exp Eye Res, 2001; cited from earlier work.
Test [3] has as its system epithelial cells from rabbit cornea. To be noted: Hara et al., Exp Eye Res, 2001; cited from earlier work.

Here are results for 3 molecules from US8815814B2, “Cosmetic composition containing oligopeptides” (Cognis IP Management GmbH, priority 2010, dated 2014).

Residues, ends and D or L forms follow the SMILES beside them.

On to `CC(=O)N[C@H](C(=O)N[C@@H](CC(C)C)C(=O)N[C@@H](CC(C)C)C(=O)N[C@@H](CCCCN)C(=O)O)C(C)C` [Acetyl-Val-Leu-Leu-Lys, N-Acetyl-Val-Leu-Leu-Lys-OH] (Ac-VLLK-OH), for which the “level of COL14A1 mRNA (control = 100%)” value in test [1] (treatment duration 24 hours) is 175 +/− 23 (*) %; in test [1] (treatment duration 48 hours), 220 +/− 32 (*) %; in test [1] (treatment duration 72 hours), 213 +/− 27 (*) %. Besides, the “effect on the level of COL14A1 gene expression (in words)” value in test [1] (detected after 24 hours, maintained during 3 days) was “specifically and significantly increased”. Besides, in the test on tropoelastin gene (ELN), the “effect on the level of ELN gene expression (in words)” value was “specifically and significantly increased”. In addition, the entries for the “level of ELN mRNA (control = 100%)” value with tropoelastin gene (ELN) (treatment duration 24 hours), with tropoelastin gene (ELN) (treatment duration 48 hours) and in the test on tropoelastin gene (ELN) (treatment duration 72 hours) were 127 +/− 11 (*) %, 143 +/− 10 (*) % and 217 +/− 49 (*) %, respectively. Also, the “% of staining occupation (collagen type I immuno-staining)” value in the test on collagen type I was 31.07 +/− 2.22 (**) %. Further, the “effect on the level of collagen type I (in words)” value in the test on collagen type I (compared with sodium ascorbyl at 20 μg/ml) is on record as “significantly increased”. Further, the “effect on the level of GLRX2 gene expression (in words)” value in test [2] is “specifically increased”. Moreover, in test [2] (vs HPRT1 housekeeping gene, mean +/− SEM), the “level of GLRX2 mRNA (control = 100%)” value was 145 +/− 20 (*) %.
Take Sodium ascorbyl [reference compound]: the “% of staining occupation (collagen type I immuno-staining)” value with collagen type I is recorded as 18.01 +/− 1.07 (**) %.
Consider Val-Leu-Leu-His (VLLH; tetrapeptide), for which the “wound healing activity on injured rabbit cornea (in words)” value with injured rabbit cornea was “significant wound healing activity”. In test [3], the “proliferation of epithelial cells from rabbit cornea (in words)” value is “stimulate proliferation”.
